This assay concerns Bacillus subtilis. Briefly: Antibacterial activity against Bacillus subtilis PCI219 assessed as inhibition zone diameter at […] after 24 hrs by paper disk diffusion assay. Format: functional. (In general: In agar diffusion tests the substance spreads into inoculated agar from a disc or well.)

Active and inactive are the calls of the source. The rule behind the calls is not given here.

Turning to `C=C(C(CC1OC1(C)C)OC(=O)/C(C)=C\C)[C@H]1[C@H](OC(=O)/C(C)=C\C)[C@H]2O[C@@]2(C)[C@@H](O)[C@H]1OC(=O)/C(C)=C\C` (some centres not stated), the outcome was Active.

Regarding `CC[C@H]1OC(=O)[C@H](C)[C@@H](O[C@H]2C[C@@](C)(OC)[C@@H](O)[C@H](C)O2)[C@H](C)[C@@H](O[C@@H]2O[C@H](C)C[C@H](N(C)C)[C@H]2O)[C@](C)(O)C[C@@H](C)C(=O)[C@H](C)[C@@H](O)[C@]1(C)O` [ERYTHROMYCIN], the zone of inhibition at 10 mg/kg (PCI219, 24 h, read-out: IZ) turned out to be 31 mm.

These data come from ChEMBL document CHEMBL1149826, “Chemical constituents and diversity of Ligularia lankongensis in Yunnan Province of China” (2008).
